System: ovine sepsis induced by intravenous infusion of live E. coli
Text: Using this model, the inventors have investigated the effect of mega dose intravenous vitamin C therapy on various parameters indicative of the progression of sepsis in sheep (Merino ewes, 35-45 kg; 1.5-2.0 years old). Sheep were divided into two groups, a vitamin C (sodium ascorbate) therapy group and a vehicle group as a control. Experimental protocols were approved by the Animal Ethics Committee of the Florey Institute of Neuroscience and Mental Health under guidelines of the National Health and Medical Research Council of Australia.
Preparatory surgical procedures were carried out as described in Lankadeva et al. (2018b). Briefly, two preparatory surgical procedures were performed under general anaesthesia. First, a carotid artery was exteriorised into a skin fold to form a carotid arterial loop to facilitate cannulation for measurement of arterial pressure and heart rate, and for blood sampling. During the same surgical procedure, a flow probe was placed around the pulmonary artery to measure cardiac output. Animals were allowed 3-4 weeks of recovery. Second, a flow probe was implanted around a renal artery to measure renal blood flow, a renal vein was cannulated for blood sampling and fibre optic probes were inserted into the renal cortex, renal medulla (within kidneys) and parietal cortex (brain) to measure tissue perfusion, oxygen tension and temperature.
During the second surgical procedure cannulae were implanted in the carotid artery for arterial pressure measurement and blood sampling and the jugular vein for infusion of fluids, vasopressors, Escherichia coli, sodium ascorbate and blood sampling, and a Foley catheter was inserted into the bladder to collect urine and monitor hourly urine output.
Following three days of recovery from the second surgical procedure, the experimental protocol (see FIG. 1) was initiated in conscious sheep, to avoid the confounding effects of general anaesthesia. Animals daily food and water intake and urine output was measured on a 24-hour basis during the course of the 5-day protocol.
First, a 24-hour baseline period was commenced, which included measurement of systemic haemodynamics, renal and brain perfusion and oxygenation, arterial, central venous and renal venous blood gases and lactate, and urine output. Arterial blood and urine samples were collected at set times during the experimental period.
After establishment of the 24-hour baseline period, gram-negative sepsis was induced by intravenous infusion of live E. coli (isolated from a patient with sepsis at Austin Health) as described in Lankadeva et al. (2018b), administered as a loading (bolus) infusion of 2.8×10^9 colony-forming units (CFU) over 30-minutes followed by a continuous infusion of 1.26×10^9 CFU/h for 30.5 hours. No prophylactic antibiotics, sedative or analgesic agents were administered during this protocol. The description in the following paragraphs is with reference to the protocol as shown schematically in FIG. 1.
At 23 hours of sepsis, when sheep had fulfilled the clinical criteria for sepsis (i.e. established hypotension, tachycardia, fever, lung injury, tachypnoea, hyperlactatemia and stage 1-2 acute kidney injury) animals were resuscitated with 30 mL/kg balanced crystalloid sodium lactate (Hartmann's solution infused at approximately 2500 ml/hr) for 30 mins, from 23-23.5 hours of sepsis.
A blocked randomization design was used to allocate sheep to treatment with sodium ascorbate or vehicle.

[1] = NaHCO3 infusion, two septic sheep
[2] = during the infusion of NaHCO3, two septic sheep

`O=C([O-])O.[Na+]` [NaHCO3, sodium bicarbonate] was tested, and the MAP [1] was “decreased”, the RBF [1] was “not reduced” and the “arterial PO2” value [1] was “no improvement”. For the same compound, the “blood pH” value [1] was “large increase”, the blood potassium [1] was “hypokalemia” and the blood sodium [1] was “hypernatremia”. The creatinine clearance [1] was “no reduction in plasma creatinine or increase in creatinine clearance was observed”, the heart rate [1] was “not reduced” and the norepinephrine dose required [1] was “increasing doses of norepinephrine were required”. For the same compound, the plasma creatinine [1] was “no reduction”, the “renal medullary PO2” value [1] was “no improvement” and the renal medullary perfusion [1] was “no improvement”. The urine flow [1] was “urine flow increased”, the body temperature [2] was “large increases” and the shivering [2] was “intermittent shivering”. The “reproduction of the effects of sodium ascorbate” value (hypertonic NaHCO3, equal sodium load, 8.4 g/kg over 30 minutes then 8.4 g/kg/hr for 6.5 hours, two septic sheep, data not shown) was “did not reproduce the effects of sodium ascorbate”.
